“Also recorded” adds a separate entry of the source.
Columns and labels:
C. elegans [1] = assay: Conjugate uptake in C. elegans (dye and praziquantel conjugates, fluorescence microscopy); type: in vivo, Caenorhabditis elegans
How it was run: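 Worms in M9 buffer were exposed to 50 μM compound from a DMSO stock at room temperature in the dark for 3 h. Other samples were incubated overnight at 20 °C with OP50, and praziquantel conjugates were also read at 24 and 72 h. Worms were washed, immobilised with sodium azide on agarose and imaged by fluorescence microscopy.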

C. elegans [2] = assay: Protein uptake in C. elegans (phiLOV protein conjugates); type: in vivo, Caenorhabditis elegans; conditions: positive control
Protocol: The effective PhiLOV protein conjugate in M9 buffer was taken from the chemical ligation and purification experiments. The amount of M9 buffer added was determined by the final concentration required. Nematodes (30-40 per protein sample to be analysed) were picked and added to the protein solution, and the resulting suspension was treated with OP50 E. coli solution for nematode sustenance. The nematode suspension was incubated at 20° C. in the dark, and covered with aluminium foil.
Aliquots (10 to 25 μL) were taken at 24, 48 and 72 h. and transferred into a new Eppendorf tube at each time point and diluted with M9 buffer (200 μL). The new suspension was placed in ice (for 1-2 min) and then centrifuged at 10.000 rpm for 1 min. The supernatant was removed and the concentrated nematodes were washed again (2×200 μL). In the final wash, a residual volume (approx. 30 μL) was left with the nematodes.
For the microscopy studies, a 1.5% agarose solution in water was warmed up for 1-1.5 min in a standard household microwave (Power 4). Two drops of the agarose solution were placed on a glass slide and covered with another glass slide. After 1 min, the two slides were taken apart from each other carefully. On the slide where the agarose remained, 15-20 μL of the final C. elegans solution was placed. To this was added a 20 mM sodium azide solution (5 μL) to inhibit nematode mobility.
Vaseline was placed around the agarose area before replacing the top cover slip. The cover slips were not pressed together. The nematodes were then analysed using a Zeiss Axiskop 2 Plus microscope using a Hamamatsu Orca-ER (CA 742-95) camera. The images were resolved using OpenLab on a Mac operating system.
Feeding was repeated after 48 h. with addition of 2 μL of OP50 bacteria for feeding purposes, and the worm incubation was continued in the dark at […].
Using the approach described above, 11 protein conjugates were tested for their ability to deliver the phiLOV protein into nematodes. […] The location and efficiency of the delivery can be modulated by small structural modifications to the delivery vehicle, as shown by compounds P1-P11 (including negative control, positive control using compound 1 and untagged phiLOV protein control).

T. annulata = assay: Theileria annulata testing: uptake; type: cell-based; conditions: 1 hour, 37° C.
Protocol: T. annulata were cultured using RPMI 1640 with 10% Albumax II (Thermo-Fisher) serum. A standard hemocytometer was used to calculate the concentration of cells in the parent culture. […] For each compound and concentration to be tested, 2 mL of the culture were centrifuged at 1,000 rpm for 5 minutes. The medium was removed before the cells were resuspended in 950 μL of complete medium containing the compound to be tested at the desired concentration. This was prepared from a 100 mM stock solution of compound in DMSO. Once the cells were resuspended they were transferred to a 5 well plate (1 mL capacity per well). They were then incubated for 1 hour at 37° C. in an atmosphere of 5% CO2 in air. After the incubations were complete the contents of each well were transferred to a 10 mL centrifuge tube. Cold RPMI 1640 (Thermofisher) or HBSS added to obtain a volume of 5 mL. The suspension was then centrifuged at 1,000 rpm and at 4° C. for 5 minutes. […] After the final washing the pellet of cells was resuspended in a minimum amount of RPMI 1640 and then spotted onto a glass slide. The slide was then covered with a cover slip and analysed using Olympus BX60 UV microscope system with a Spot RT3 camera and Spot Image software with a FITC fluorescent filter.

[3] = test system: M. tuberculosis strain H37Rv; assay: Uptake test in M. tuberculosis; type: cell-based, Mycobacterium tuberculosis; conditions: 50 μg/mL (~80 μM), room temperature, 45 min
B. bovis Texas strain = assay: Short-term uptake test in B. bovis infected RBCs (confocal microscopy); conditions: 25 μM, 37° C., 45 min, ~5% PPE
Protocol: The parasite culture was centrifuged and washed once with GIT medium. RBC's were pellet down, and 20 μl infected RBC mixture (10 μl packed infected RBC+10 μl GIT) was prepared. Then, 180 μl GIT medium with compound the compound to be evaluated (final concentration 25 μM for BODIPY derivatives and 100 μM for phiLOV derivatives) or DMSO (0.1%)/PBS control was added. The samples were incubated for 45 min at 37° C. (Samples were stained 1 μg/mL diluted Hoechst 33342 in GIT medium). After incubation, the samples were centrifuged and the pellet was washed with GIT medium (3×). A final solution of 50% haematocrit infected RBC mixture was transferred to slides to be observed by confocal laser microscopy (Nikon A1).
Uptake experiments were performed by incubating the parasite (˜5% Parasitized Erythrocytes (PPE)) with each derivative at 25 μM and 37° C. for 45 min. After incubation, the fluorescence intensities were calculated from confocal microscope images.
The phiLOV double mutant (R475G, K476C) was used to generate derivatives P11, P1, P8, and P3 which were tested for uptake in B. bovis Texas strain using phiLOV as a control. The derivatives and the control were incubated at 100 μM and 37° C. for 45 min. After incubation, the samples were analysed under confocal microscopy using Hoeschst 33342 (Thermofisher) as co-stain.

## CC1=CC(C)=[N+]2C1=Cc1ccc(CCCn3cc(CCNC(=O)/C=C/NC(=O)[C@@H]4OC(C)(C)OCC4(C)C)nn3)n1[B-]2(F)F [Compound 1, (R,E)-N-((((3-[4,4-Difluoro-5,7-dimethyl-4-bora-3a,4a-diaza-s-indacene-3-yl]propyl)-1H-1,2,3-triazol-4-yl)ethylamino)-3-oxoprop-1-enyl)-2,2,5,5-tetramethyl-1,3-dioxane-4-carboxamide]
C. elegans [1]; 50 μM, 3 h incubation
  uptake compared to other compounds: largest uptake observed compared to compounds 2 to 8
  uptake: location of fluorescence in C. elegans: observed in the pharynx, gut lumen and gut cells of both adults and larval stages
C. elegans [1]; 50 μM, 20 h / overnight incubation
  uptake: location of fluorescence in C. elegans: strong fluorescence was localised in the pharynx, gut lumen and gut cells of both adults and larvae
C. elegans [1]; FIG. 2(h), fluorescence microscopy
  distribution in C. elegans: distributed throughout the nematode
C. elegans [2]; 24 h incubation
  location of fluorescence in C. elegans: fluorescence could be observed in the pharynx, gut lumen and gut cells of both adults and larval stages of C. elegans
C. elegans [2]; 48 h incubation
  location of fluorescence in C. elegans: fluorescence was still localised in the pharynx, gut lumen and gut cells of both adults and larvae
C. elegans [2]; 72 h incubation
  location of fluorescence in C. elegans: fluorescence was still localised in the pharynx, gut lumen and gut cells of both adults and larvae
C. elegans [2]; 72 h point (same seen with M9 buffer negative control)
  state of adult nematodes: the adult nematodes were dead
T. annulata
  uptake in T. annulata: very limited uptake
[3]
  uptake in M. tuberculosis (fluorescence intensity / microscopy): preferred over their S counterparts; also recorded: highest fluorescence signals
B. bovis Texas strain
  uptake in RBCs infected with B. bovis (fluorescence intensity from confocal images): highest uptake
